Test results taken from PubChem BioAssay AID1259407 (Chemical Carcinogenesis Research Information System (CCRIS), 2018).
Activity calls are given as the source filed them. How the calls were made is not given here.

Tested on: CCRIS mutagenicity, Ames/micronucleus/aberration tests
Experiment: CCRIS mutagenicity studies
[1] = Test System: AMES SALMONELLA TYPHIMURIUM, Strain/Indicator: TA98, Metabolic Activation: NONE, Method: PREINCUBATION
[2] = Test System: AMES SALMONELLA TYPHIMURIUM, Strain/Indicator: TA98, Metabolic Activation: NONE, Method: STANDARD PLATE
[3] = Test System: AMES SALMONELLA TYPHIMURIUM, Strain/Indicator: TA100, Metabolic Activation: NONE, Method: PREINCUBATION
[4] = Test System: AMES SALMONELLA TYPHIMURIUM, Strain/Indicator: TA100, Metabolic Activation: NONE, Method: STANDARD PLATE
[5] = Test System: AMES SALMONELLA TYPHIMURIUM, Strain/Indicator: TA1535, Metabolic Activation: NONE, Method: PREINCUBATION
[6] = Test System: AMES SALMONELLA TYPHIMURIUM, Strain/Indicator: TA1537, Metabolic Activation: NONE, Method: PREINCUBATION
[7] = Test System: AMES SALMONELLA TYPHIMURIUM, Strain/Indicator: TA97, Metabolic Activation: NONE, Method: PREINCUBATION

N.N.O=C([O-])C1(C(=O)[O-])CCC1.[Pt+4]
mutagenic call [1]: inactive; negative
mutagenic call [2]: inactive; negative
mutagenic call (Test System: AMES SALMONELLA TYPHIMURIUM, Strain/Indicator: TA98, Metabolic Activation: RAT, LIVER, S-9, AROCLOR 1254, Method: STANDARD PLATE): inactive; negative
mutagenic call (Test System: AMES SALMONELLA TYPHIMURIUM, Strain/Indicator: TA98, Metabolic Activation: RAT, LIVER, S-9, PHENOBARBITAL AND 5,6-BENZOFLAVONE, Method: PREINCUBATION): inactive; negative
mutagenic call [3]: inactive; negative
mutagenic call [4]: inactive; negative
mutagenic call (Test System: AMES SALMONELLA TYPHIMURIUM, Strain/Indicator: TA100, Metabolic Activation: RAT, LIVER, S-9, AROCLOR 1254, Method: STANDARD PLATE): inactive; negative
mutagenic call (Test System: AMES SALMONELLA TYPHIMURIUM, Strain/Indicator: TA100, Metabolic Activation: RAT, LIVER, S-9, PHENOBARBITAL AND 5,6-BENZOFLAVONE, Method: PREINCUBATION): inactive; negative
mutagenic call (Test System: AMES SALMONELLA TYPHIMURIUM, Strain/Indicator: TA102, Metabolic Activation: NONE, Method: STANDARD PLATE): active; positive
mutagenic call (Test System: AMES SALMONELLA TYPHIMURIUM, Strain/Indicator: TA102, Metabolic Activation: RAT, LIVER, S-9, AROCLOR 1254, Method: STANDARD PLATE): active; positive
mutagenic call [5]: inactive; negative
mutagenic call (Test System: AMES SALMONELLA TYPHIMURIUM, Strain/Indicator: TA1535, Metabolic Activation: RAT, LIVER, S-9, PHENOBARBITAL AND 5,6-BENZOFLAVONE, Method: PREINCUBATION): inactive; negative
mutagenic call [6]: inactive; negative
mutagenic call (Test System: AMES SALMONELLA TYPHIMURIUM, Strain/Indicator: TA1537, Metabolic Activation: RAT, LIVER, S-9, PHENOBARBITAL AND 5,6-BENZOFLAVONE, Method: PREINCUBATION): inactive; negative
mutagenic call (Test System: CHINESE HAMSTER, Strain/Indicator: V-79/6-THIOGUANINE (HGPRT), Metabolic Activation: NONE, Method: STANDARD PLATE): active; positive
mutagenic call (Test System: E.COLI, Strain/Indicator: WP2 UVRA, Metabolic Activation: NONE, Method: PREINCUBATION): inactive; negative
mutagenic call (Test System: E.COLI, Strain/Indicator: WP2 UVRA, Metabolic Activation: RAT, LIVER, S-9, PHENOBARBITAL AND 5,6-BENZOFLAVONE, Method: PREINCUBATION): inactive; negative

Cl[Si](Cl)(Cl)Cl
mutagenic call [2]: inactive; negative
mutagenic call (Test System: AMES SALMONELLA TYPHIMURIUM, Strain/Indicator: TA98, Metabolic Activation: RAT LIVER S-9, AROCLOR 1254, Method: STANDARD PLATE): inactive; negative
mutagenic call [4]: inactive; negative
mutagenic call (Test System: AMES SALMONELLA TYPHIMURIUM, Strain/Indicator: TA100, Metabolic Activation: RAT LIVER S-9, AROCLOR 1254, Method: STANDARD PLATE): inactive; negative
mutagenic call (Test System: AMES SALMONELLA TYPHIMURIUM, Strain/Indicator: TA1535, Metabolic Activation: NONE, Method: STANDARD PLATE): inactive; negative
mutagenic call (Test System: AMES SALMONELLA TYPHIMURIUM, Strain/Indicator: TA1535, Metabolic Activation: RAT LIVER S-9, AROCLOR 1254, Method: STANDARD PLATE): inactive; negative
mutagenic call (Test System: AMES SALMONELLA TYPHIMURIUM, Strain/Indicator: TA1537, Metabolic Activation: NONE, Method: STANDARD PLATE): inactive; negative
mutagenic call (Test System: AMES SALMONELLA TYPHIMURIUM, Strain/Indicator: TA1537, Metabolic Activation: RAT LIVER S-9, AROCLOR 1254, Method: STANDARD PLATE): inactive; negative
mutagenic call (Test System: AMES SALMONELLA TYPHIMURIUM, Strain/Indicator: TA1538, Metabolic Activation: NONE, Method: STANDARD PLATE): inactive; negative
mutagenic call (Test System: AMES SALMONELLA TYPHIMURIUM, Strain/Indicator: TA1538, Metabolic Activation: RAT LIVER S-9, AROCLOR 1254, Method: STANDARD PLATE): inactive; negative
mutagenic call (Test System: E. COLI, Strain/Indicator: P3078 POLA, Metabolic Activation: NONE, Method: SPOT TEST): inactive; negative
mutagenic call (Test System: E. COLI, Strain/Indicator: P3078 POLA, Metabolic Activation: RAT LIVER S-9, AROCLOR 1254, Method: SPOT TEST): inactive; negative
mutagenic call (Test System: E. COLI, Strain/Indicator: W3110, Metabolic Activation: NONE, Method: SPOT TEST): inactive; negative
mutagenic call (Test System: E. COLI, Strain/Indicator: W3110, Metabolic Activation: RAT LIVER S-9, AROCLOR 1254, Method: SPOT TEST): inactive; negative
mutagenic call (Test System: MOUSE LYMPHOMA, Strain/Indicator: L5178Y (TK+/TK-), Metabolic Activation: NONE, Method: SUSPENSION/PLATE): inactive; negative
mutagenic call (Test System: MOUSE LYMPHOMA, Strain/Indicator: L5178Y (TK+/TK-), Metabolic Activation: RAT, LIVER, S-9, Method: SUSPENSION/PLATE): inactive; negative

CCCCCCCCCC
mutagenic call (Test System: AMES SALMONELLA TYPHIMURIUM, Strain/Indicator: TA97, Metabolic Activation: HAMSTER, LIVER, S-9, AROCLOR 1254 (10 OR 30%), Method: PREINCUBATION): inactive; negative
mutagenic call [7]: inactive; negative
mutagenic call (Test System: AMES SALMONELLA TYPHIMURIUM, Strain/Indicator: TA97, Metabolic Activation: RAT, LIVER, S-9, AROCLOR 1254 (5%), Method: PREINCUBATION): inactive; negative
mutagenic call (Test System: AMES SALMONELLA TYPHIMURIUM, Strain/Indicator: TA97, Metabolic Activation: RAT, LIVER, S-9, AROCLOR 1254 (10 OR 30%), Method: PREINCUBATION): inactive; negative
mutagenic call (Test System: AMES SALMONELLA TYPHIMURIUM, Strain/Indicator: TA98, Metabolic Activation: HAMSTER, LIVER, S-9, AROCLOR 1254 (10 OR 30%), Method: PREINCUBATION): inactive; negative
mutagenic call [1]: inactive; negative
mutagenic call (Test System: AMES SALMONELLA TYPHIMURIUM, Strain/Indicator: TA98, Metabolic Activation: RAT, LIVER, S-9, AROCLOR 1254 (10 OR 30%), Method: PREINCUBATION): inactive; negative
mutagenic call (Test System: AMES SALMONELLA TYPHIMURIUM, Strain/Indicator: TA100, Metabolic Activation: HAMSTER, LIVER, S-9, AROCLOR 1254 (10 OR 30%), Method: PREINCUBATION): inactive; negative
mutagenic call [3]: inactive; negative
mutagenic call (Test System: AMES SALMONELLA TYPHIMURIUM, Strain/Indicator: TA100, Metabolic Activation: RAT, LIVER, S-9, AROCLOR 1254 (10 OR 30%), Method: PREINCUBATION): inactive; negative
mutagenic call (Test System: AMES SALMONELLA TYPHIMURIUM, Strain/Indicator: TA1535, Metabolic Activation: HAMSTER, LIVER, S-9, AROCLOR 1254 (10 OR 30%), Method: PREINCUBATION): inactive; negative
mutagenic call [5]: inactive; negative
mutagenic call (Test System: AMES SALMONELLA TYPHIMURIUM, Strain/Indicator: TA1535, Metabolic Activation: RAT, LIVER, S-9, AROCLOR 1254 (10 OR 30%), Method: PREINCUBATION): inactive; negative
mutagenic call (Test System: AMES SALMONELLA TYPHIMURIUM, Strain/Indicator: TA1537, Metabolic Activation: HAMSTER, LIVER, S-9, AROCLOR 1254 (30%), Method: PREINCUBATION): inactive; negative
mutagenic call [6]: inactive; negative
mutagenic call (Test System: AMES SALMONELLA TYPHIMURIUM, Strain/Indicator: TA1537, Metabolic Activation: RAT, LIVER, S-9, AROCLOR 1254 (5 OR 10%), Method: PREINCUBATION): inactive; negative
mutagenic call (Test System: AMES SALMONELLA TYPHIMURIUM, Strain/Indicator: TA1537, Metabolic Activation: RAT, LIVER, S-9, AROCLOR 1254 (30%), Method: PREINCUBATION): inactive; negative

NNC(=O)c1[nH]c2ccccc2c1N
mutagenic call [7]: active; positive
mutagenic call (Test System: AMES SALMONELLA TYPHIMURIUM, Strain/Indicator: TA97, Metabolic Activation: S-9 (10%), Method: PREINCUBATION): inactive; negative
mutagenic call [1]: active; positive
mutagenic call (Test System: AMES SALMONELLA TYPHIMURIUM, Strain/Indicator: TA98, Metabolic Activation: S-9 (10%), Method: PREINCUBATION): inactive; negative
mutagenic call [3]: inactive; negative
mutagenic call (Test System: AMES SALMONELLA TYPHIMURIUM, Strain/Indicator: TA100, Metabolic Activation: S-9 (10%), Method: PREINCUBATION): inactive; negative
mutagenic call (Test System: AMES SALMONELLA TYPHIMURIUM, Strain/Indicator: TA102, Metabolic Activation: NONE, Method: PREINCUBATION): inactive; negative
mutagenic call (Test System: AMES SALMONELLA TYPHIMURIUM, Strain/Indicator: TA102, Metabolic Activation: S-9 (10%), Method: PREINCUBATION): inactive; negative

CC(=O)OCCN(CCC#N)c1ccc(N=Nc2ccc([N+](=O)[O-])cc2)cc1
mutagenic call (End Point: IN VITRO CHROMOSOMAL ABERRATIONS, Test System: CHL CELLS, Metabolic Activation: RAT, LIVER, S-9, SODIUM PHENOBARBITAL AND 5,6-BENZOFLAVONE): inactive; negative

O=C1CC(=C(Cl)Cl)C(=O)N1
mutagenic call [4]: active; positive
